Here are results for one substance from US20130085105A1, “Transdermal Administration Of Peptides” (The Provost, Fellows and Scholars of the College of Holy …, priority 2010, published 2013).

A short description of series [1]: Partition coefficients n-octanol/deionized water and n-octanol/PBS. Type of series: physicochemical. As to conditions: 24 hours. As for the experimental part:
The partition coefficients for all somatostatin-fatty acid salts in either n-octanol/deionized water or n-octanol/PBS (pH 7.4) were determined. The partition coefficient is the concentration of Compound A or Compound B in the n-octanol phase divided by the concentration in the aqueous or PBS phase.
An accurately weighed sample of each salt was placed into 4 ml HPLC vials sealed with caps containing pierceable silicone septa and dissolved in 2 ml n-octanol. Two ml of either deionized water or PBS were added to each sample; the vials were vortexed vigorously and incubated at 37° C. with agitation for 24 hours in a shaker-incubator at 400 rpm.
Following incubation, two samples were withdrawn from each vial. Once the layers had fully partitioned, a syringe was used to draw a sample of the aqueous phase or the n-octanol phase. Samples from each phase were diluted appropriately with deionized or methanol prior to HPLC analysis.

Series [2] in a line: In vitro transdermal permeation, diffusion cell, hairless mouse skin. Type of series: in vitro ADME, hairless mice. The text has this: The abdominal skin from male hairless mice (mice of the HRS strain carrying a mutant Hr gene (hr/hr)) aged 6-8 weeks was cleaned of any subcutaneous fat with blood vessels while maintaining the integrity of the viable epidermis and SC. The excised skin was used immediately after preparation and was not stored prior to use.
A custom made finite dosing diffusion cell (AGB Scientific, Dublin, Ireland, FIG. 1) based upon and modified from the Keshary-Chien type diffusion cell was used for in vitro permeation studies.
Three to five diffusion cells were used in each permeation experiment and monitoring was performed over a 48 hour period. The cells were linked in series to a thermostatically controlled circulation bath set at 35° C. to mimic human skin surface temperature. Each cell was placed on a stir-plate set at a defined stirring rate of 1,000 rpm. The surface area for permeation provided by each cell was 3.14 cm^2.
Data collected from each permeation study included:
1) the average maximum flux obtained in 48 hours (Jmax),
2) the total absorption characterized as the total weight of peptide delivered transdermally into the receiver compartment over a 48 hour period,
3) the lag time to detectable flux which was equivalent to the latest sampling time at which no peptide was detectable by HPLC analysis of the receiver solution, and
4) an equivalent 48-hour steady state flux was determined by obtaining the slope of the best-fit line for a plot of cumulative flux per unit area versus time (described by McDaid, D. M. et al., Int. J. Pharm., 133:71-83, 1996).
Fresh hairless mouse skin samples or fresh or freshly thawed pig skin samples were mounted onto the diffusion cell with the SC topmost and in contact with the donor system. A rubber or plastic ring was placed on top of the skin sample to secure it in position. The combination of the diffusion cell top, the skin and the rubber ring was securely fastened together by means of a threaded cap. A recorded volume of receiver solution was added to the receiver compartment and maintained at 35° C. The receiver solution was 60/40 (v/v) PBS/propylene glycol (pH 7.1). The propylene glycol fraction was used to increase the solubility of the somatostatin-fatty acid salts. Previous work reported by Morgan et al. (J. Pharm. Sci., 87:1213-1218, 1998) has shown that a 50/50 water/propylene glycol receptor solution had no detrimental effect on the barrier integrity of both hairless mouse and porcine skin.
The receiver solution was allowed to equilibrate at 35° C. for 30 minutes. […] A narrow-bore hypodermic needle was used to withdraw 1 ml samples from the receiver compartment via the sampling port; at each sampling time, an equal volume of drug-free receiver solution was immediately added back to the receiver compartment. Samples were analyzed by HPLC.
HPLC determination of peptide content in the receiver solution along with the known surface area of skin used (3.14 cm^2) allowed for calculation of transdermal flux (in units of μg/cm^2/hr) for each time point. Panels 1 and 2 of FIG. 2 show flux […] profiles for the myristate, octanoate, decanoate, linoleate, nonanote, acetate and laurate […]
Once lead candidate somatostatin-fatty acid salts had been selected on the basis of in vitro permeation in a DMSO solution, the effect of different solvents and penetration enhancers on permeation was assessed. The concentration of the donor solution corresponded to 5 mg/ml free base peptide for all experiments and all donor solutions were equilibrated at 37° C. for one hour prior to use. These experiments were carried out using hairless mouse skin and pigskin barriers.

Series [3] is described as follows: Prediction of permeability coefficient Kp and human steady-state plasma level. From the text: A further approach to estimating human plasma levels following transdermal administration was outlined by Howes et al. (ATLA, 24:81-106, 1996) and was based on a mass balance approach whereby the input and output quantities of drug are considered equal. Rewriting “input=output” for transdermal systems gives:
A×Kp×Cappl=CL×Cp Eqn. 10.6
where A is the area of application, Kp is the permeability coefficient of the drug through the skin, Cappl is the applied concentration, CL is the plasma clearance and Cp is the steady-state plasma concentration of the drug. Rearranging the equation to estimate Cp gives: […]
A number of methods for determining Kp based on the lipophilicity and molecular weight of the drug in question are available. Potts and Guy (Pharm. Res., 9:663-669, 1992) found the following relationship:
Another method of calculating Kp which makes use of in vitro data is described by Hewitt et al. (In vitro cutaneous disposition of a topical diclofenac lotion in human skin: Effect of a multidose regimen, in Percutaneous Absorption, Bronaugh, R. L. and Maibach, H. I. (Eds.), Marcel Dekker Inc., New York, 1999):
Kp(cm/h)=absorption(μg)/[area×concentration(μg/cm^3)×time] Eqn. 10.11
Values for Kp were calculated using Eqns. 10.9 and 10.10 using the MW value for Compound B di-oleate (1,767 g/mol) and its previously determined KOW value (340.43). Additionally, Eqn. […]

Setting [4] is: n-octanol/deionized water, 37° C.
The mark [5] stands for this setting: donor 55% EtOH 40% Water 5% Cineole, 5 mg/ml free base peptide.
[6] abbreviates: donor 55/45 (v/v) EtOH/H2O, approx. 5 mg/ml free base peptide.
Where [7] appears, read: donor DMSO, approx. 5 mg/ml free base peptide (4.9 mg/ml Compound A oleate, 5.2 mg/ml Compound A acetate).
[8] abbreviates: donor DMSO, approx. 5 mg/ml free base peptide (4.9 mg/ml Compound A oleate, 5.2 mg/ml Compound A acetate), 48 hr.

Consider “[4-(2-hydroxyethyl)]-1-piperazinylacetyl-D-Phe-c(Cys-Tyr-D-Trp-Lys-Abu-Cys)-Thr-NH2 [Compound B di-oleate]”, for which, in series [1] (n-octanol/PBS pH 7.4, 37° C.), the “Log KOPBS” value is on record as −1.398 and the “O/PBS Coefficient (KOPBS)” value is 0.04. Also, in series [1] (setting [4]), the “Log KOW” value is reported as 2.532 and the “O/W Coefficient (KOW)” value worked out at 340.43. Besides, in series [2] (55/40/5 ethanol/water/cineole vs 55/45 ethanol/water), the “increase in total peptide flux over 48 hours due to cineole” value is listed as 19.26%. Besides, in series [2] (setting [5]), the Jmax came to 39.838 μg/cm^2/hr, the Jss worked out at 24.075 μg/cm^2/hr, the “Lag Time” value turned out to be 1 h and the “Total Absorption” value is on record as 3,279.62 μg/48 hr. Besides, in series [2] (setting [6]), the Jmax was found to be 32.902 μg/cm^2/hr, the Jss came to 20.264 μg/cm^2/hr, the “Lag Time” value was 1 h and the “Total Absorption” value is reported as 2,750.01 μg/48 hr. Moreover, in series [2] (setting [7]), the “Lag Time” value worked out at 1 h and the “Total Absorption” value turned out to be 814.86 μg/48 hr. In series [2] (setting [8]), the Jmax was 21.407 μg/cm^2/hr and the Jss turned out to be 5.158 μg/cm^2/hr. For the same substance, in series [2] (vs myristate, octanoate, decanoate, linoleate, nonanoate, acetate, laurate salts of Compound A and acetate of Compound B), the “flux profile in DMSO compared with other salts” value was “far exceeded”. In addition, the “Kp Value Obtained” value in series [3] (Eqn. 10.11 from in vitro absorption across pig epidermis, optimized donor vehicle) is 0.0003476 cm/h. Also, the “steady-state plasma level (Cp)” value in series [3] (predicted for human, Eqn. 10.8 with Kp of Eqn. 10.11, area 20 cm^2, 5 mg/cm^3 applied) is 1.6998 ng/mL.
